20 compounds from patent US5571685A (priority 1992, dated 1996) can be followed below.

Data set [1] addresses T1, morphinone reductase (Pseudomonas putida, UniProt Q51990). Put plainly: biochemical. More on the design: initiator Met absent; species or system Pseudomonas putida M10. To be noted: for remaining activity at 1000 µM: 1 mM; for remaining activity at 1000 µM / remaining activity at 500 µM: read-out: Activity as percentage of control activity; for Inhibition of enzyme (in words): pre-incubation with purified enzyme. How it is done: Assays were carried out at 30° C.
Purified enzyme was incubated with the following possible inhibitors: copper sulphate, the thiol-blocking agent p-hydroxymercuribenzoate (pHMB), the thiol-reducing agent dithiothreitol (DTT) and the metal-complexing agents ethylenediaminetetraacetic acid (EDTA) and 8- hydroxyquinoline (8HQ). Incubation was in the standard assay mixture without codeinone or NADH, firstly for 30 min at room temperature and secondly for 16 hours at 4° C. The enzyme concentration was approximately 3.3 μg/ml, 1/100 that of the purified enzyme stock.

Data set [2] addresses T1, morphinone reductase. Conditions: for Enzyme activity against compound as substrate: forward (reduction) direction, with NADH; for Enzyme activity in the reverse direction: reverse reaction.
The target of data set [3] is T1, morphinone reductase. Put plainly: Inhibition of the reaction with codeinone by compounds added to the standard assay mixture. It counts as biochemical, Pseudomonas putida M10. Details: initiator Met absent. To be noted: for Inhibition of the reaction with codeinone: added at 0.3 mM to the standard assay mixture.
Description: Enzyme activity was tested with a variety of substrates.
The target in data set [4] is T2, deflavo-morphinone reductase (Pseudomonas putida, UniProt Q51990).
T2 construct: FMN removed by ammonium sulphate (apoenzyme); initiator Met absent
Put plainly: Reconstitution of deflavo-morphinone reductase by incubation with flavins. It counts as biochemical, Pseudomonas putida M10. The method, then:
Flavin was dissociated from morphinone reductase by boiling for 3 minutes and removal of denatured protein by ultrafiltration. […] Thin layer chromatography (TLC) of flavins was performed on silica plates using solvent systems 2 and 4 of Fazekas and Kokai (Met. Enzymol. (1971) 18B:385-398), viz. 12:3:5 n-butanol:acetic acid:water and 2% disodium hydrogen phosphate in water. Flayins on TLC plates were visualised by their yellow fluorescence when illuminated by ultraviolet light at 366 nm. Luciferase assay of flavins was performed using the commercially-availablepreparation of Vibrio harveyii luciferase of Sigma. The reaction mixture contained 0.1 mg/ml luciferase preparation, 0.1 mg/ml bovine serum albumin, 0.2 mM n-decanal, 0.5 mM NADH and 1.5mM dithiothreitol. Assays were carried out at 24° C. and light emission was measured using a BioOrbit 1250 Luminometer (Labsystems (UK) Ltd., Basingstoke, U.K.). Deflavomorphinone reductase was prepared by ammonium sulphate treatment, as described by Husain and Massey (1978) Met. Enzymol. 53:429-437.
The liberated flavin comigrated with flavin mononucleotide (FMN) and not with flavin adenine dinucleotide (FAD) or riboflavin in two thin layer chromatography systems. The liberated flavin gave a positive result in the luciferase assay which is highly specific for FMN (Chappelle and Picciolo, Met. Enzymol (1971) 18B:381-385). […]

The target in data set [5] is T1, morphinone reductase. Put plainly: Coupled enzyme system (morphine dehydrogenase then morphinone reductase), HPLC analysis. It counts as biochemical, Pseudomonas putida M10. More on the design: initiator Met absent.
Description: Reverse-phase HPLC analysis was performed on a Waters component system (Millipore Waters U.K. Limited, Watford) consisting of a model 510 pump, a model 712 WISP autoinjector and a Waters 994 programmable photodiode array detector set to 235 nm and 280 nm, 0-1 V fsd. Separation of samples (50 μl ) was achieved on a 5 μm C18 Spherisorb ODS column (4.6×250mm) (Anachem limited, Luton) with an isocratic solvent system, delivered at a flow rate of 1 ml/min. The mobile phase consisted of filter-sterilised 15 mM KH2 PO4 (adjusted to pH 3.5 with 1 M H3 PO4) in 30% (v/v) HPLC grade acetonitrile (degassed for 40 min prior to use). Integrations were performed using Maxima 820 software and UV absorbance scans of resultant peaks were measured between 190 and 350 nm using the programmable photodiode array detector.
At regular intervals, 1 ml samples were removed and the reaction stopped by the addition of 2 μl glacial acetic acid (HPLC grade). The precipitated protein was subsequently pelleted at 13,000 rpm in an MSE microfuge.
In data set [6] the test system is COc1ccc2c3c1O[C@H]1C(=O)C=C[C@H]4[C@@H](C2)N(C)CC[C@]314. Put plainly: purified protein, by the assay type. To be noted: 30.0 °C.
Data set [7] relates to COc1ccc2c3c1O[C@H]1C(=O)CC=C4[C@@H](C2)N(C)CC[C@]431. Put plainly: purified protein, by the assay type. To be noted: 30.0 °C.
The test system of data set [8] is NC(=O)C1=CN([C@@H]2O[C@H](COP(=O)(O)OP(=O)(O)OC[C@H]3O[C@@H](n4cnc5c(N)ncnc54)[C@H](O)[C@@H]3O)[C@@H](O)[C@H]2O)C=CC1. Put plainly: purified protein, by the assay type. To be noted: 30.0 °C.

Where two headings read alike, the source gives them in different places.

The term Km denotes the concentration of substrate that gives half-maximal velocity. As usually defined, the kcat is the maximal rate divided by the concentration of active sites. The kcat/Km is the second-order rate constant that governs catalysis at low substrate concentration.

Take `O[C@H](CS)[C@H](O)CS` (racemic) [DTT, dithiothreitol]: the remaining activity at 1000 µM in data set [1] (16 h 4°C.) came to 94%; in data set [1] (0.5 h, 30 min 20°C.), 94%.

As for `O=C1C=CCCC1` [2-cyclohexen-1-one], in data set [2], the “Enzyme activity against compound as substrate” value (shortened to “Enzyme activity … as substrate”) is “Very slight activity”. The “Inhibition of activity against codeinone” value in data set [3] (added to the standard assay at 1 mM) was “inhibited the reaction with codeinone”.

As for `Oc1cccc2cccnc12` [8HQ, 8-hydroxyquinoline], the “Activity as percentage of control activity” value (from here on “Activity as percentage”) in data set [1] (morphinone reductase, 30 min, 50 µM) is reported as 94; in data set [1] (morphinone reductase, 960 min, 50 µM), 91.

`COc1ccc2c3c1O[C@H]1C(=O)C=C[C@H]4[C@@H](C2)N(C)CC[C@]314` [Codeinone, codeinone]: in data set [2], the “Enzyme activity … as substrate” value was “Activity was detected”.

For the compound `O=S(=O)([O-])[O-].[Cu+2]` [CuSO4, copper sulphate], in data set [1] (0.01 Mm, 30 min 20°C.), the “Activity as percentage” value came to 0%. Besides, the “Inhibition of enzyme (in words)” value in data set [1] is “highly inhibitory”.

As to `O=C(O)CN(CCN(CC(=O)O)CC(=O)O)CC(=O)O` [EDTA, ethylenediaminetetraacetic acid], the figures for the remaining activity at 500 µM in data set [1] (0.5 h) and in data set [1] (16 h) were 100% and 97%, respectively.

As to `Cc1cc2nc3c(=O)[nH]c(=O)nc-3n(C[C@H](O)[C@H](O)[C@H](O)COP(=O)(O)OP(=O)(O)OC[C@H]3O[C@@H](n4cnc5c(N)ncnc54)[C@H](O)[C@@H]3O)c2cc1C` [FAD, flavin adenine dinucleotide], the “Restoration of enzyme activity after incubation with flavin (in words)” value in data set [4] was “did not cause restoration”.

Regarding `NC(=O)C1=CN([C@@H]2O[C@H](COP(=O)(O)OP(=O)(O)OC[C@H]3O[C@@H](n4cnc5c(N)ncnc54)[C@H](OP(=O)(O)O)[C@@H]3O)[C@@H](O)[C@H]2O)C=CC1` [NADPH], the “Enzyme activity with alternative cofactor” value in data set [2] (NADPH replaced NADH) is “No activity”.

Consider `COc1ccc2c3c1O[C@H]1C(=O)CC=C4[C@@H](C2)N(C)CC[C@]431` [Neopinone, neopinone], for which, in data set [2], the “Enzyme activity … as substrate” value was “Activity was detected”.

For the compound `COc1ccc2c3c1O[C@H]1[C@@H](O)C=C[C@H]4[C@@H](C2)N(C)CC[C@@]341` [codeine], the “Enzyme activity … as substrate” value in data set [2] is listed as “No activity”.

Regarding `C[C@]12CCC(=O)C=C1CC[C@@H]1[C@@H]2C(=O)C[C@@]2(C)[C@H]1CC[C@]2(O)C(=O)CO` [cortisone], the “Enzyme activity … as substrate” value in data set [2] is listed as “No activity”. Besides, in data set [3], the “Inhibition of the reaction with codeinone” value is on record as “inhibit greatly”.

On to `COc1ccc2c3c1O[C@H]1[C@@H](O)CC[C@H]4[C@@H](C2)N(C)CC[C@@]341` [dihydrocodeine], for which the “Enzyme activity in the reverse direction” value in data set [2] is “No reverse reaction”.

Regarding `COc1ccc2c3c1O[C@H]1C(=O)CC[C@H]4[C@@H](C2)N(C)CC[C@]314` [hydrocodone], in data set [2], the “Enzyme activity in the reverse direction” value is recorded as “No activity in the reverse direction”.

Take `COc1ccc2c3c1O[C@H]1[C@H](O)C=C[C@H]4[C@@H](C2)N(C)CC[C@@]341` [isocodeine]: the “Enzyme activity … as substrate” value in data set [2] was “No activity”.

Take `CN1CC[C@]23c4c5ccc(O)c4O[C@H]2C(=O)C=C[C@H]3[C@H]1C5` [morphinone]: in data set [5], the “Enzyme activity … as substrate” value is “Activity against morphinone was demonstrated”.

On to `COc1ccc2c3c1O[C@H]1C(=O)CC[C@@]4(O)[C@@H](C2)N(C)CC[C@]314` [oxycodone], for which the “Enzyme activity in the reverse direction” value in data set [2] is recorded as “No reverse reaction”.

Turning to `CN1CC[C@]23c4c5ccc(O)c4O[C@H]2C(=O)CC[C@@]3(O)[C@H]1C5` [oxymorphone], the “Enzyme activity in the reverse direction” value in data set [2] is “No reverse reaction”.

For `O=C(O)c1cc[c]([Hg+])cc1.[OH-]` [pHMB, p-hydroxymercuribenzoate], the “Activity as percentage” value is 37% in data set [1] (0.01 mM, 30 min 20°C.); 19% in data set [1] (0.01 mM, 16 h 4°C.); 0% in data set [1] (0.02 mM, 30 min 20°C.). Besides, the “Inhibition of enzyme (in words)” value in data set [1] is “highly inhibitory”.

With `CC(=O)[C@H]1CC[C@H]2[C@@H]3CCC4=CC(=O)CC[C@]4(C)[C@H]3CC[C@]12C` [progesterone], the “Enzyme activity … as substrate” value in data set [2] is reported as “No activity”. The “Inhibition of the reaction with codeinone” value in data set [3] is reported as “inhibit greatly”.

For the compound “morphinone reductase (Pseudomonas putida)”, in data set [6], the Km came out at 250 µM, the Vmax came to 32.0 U/mg, the turnover number (kcat) came out at 44.4 s⁻¹ and the kcat/Km amounted to 178000 M⁻¹ s⁻¹. Besides, in data set [7], the Km amounted to 430 µM, the Vmax is reported as 16.6 U/mg, the kcat is 23.0 s⁻¹ and the specificity constant (kcat/Km) worked out at 53500 M⁻¹ s⁻¹. Also, the Michaelis constant (Km) in data set [8] is 50 µM.
